In patent publication US20160136110A1, “Method for Treating a Neurodegenerative Event” (MAKScientific, LLC, priority 2012, published 2016):

Key:
BDNF = BDNF ELISA of hippocampus after kainic acid injection; assay type: in vivo, rat; conditions: young rats (PND 22), kainic acid i.p. followed by 8 mg/kg i.p., 24 h; vs vehicle, p<0.001; FIG. 1B
Protocol: (§1) Young rats (PND 22) were injected i.p. with kainic acid (KA), followed immediately by vehicle (veh) or the FAAH inhibitor, Compound 1 (8 mg/kg, i.p.). After 24 h, hippocampus was rapidly dissected, and the homogenates were centrifuged to obtain supernatant for ELISA measures of GDNF) and BDNF. Standard curves were used to convert measures to pg cytokine per mg supernatant protein (±SEM). Unpaired t-tests: GDNF, *p<0.02; BDNF, ***p<0.001.

GDNF = GDNF ELISA of hippocampus after kainic acid injection; assay type: in vivo, rat; conditions: young rats (PND 22), kainic acid i.p. followed by 8 mg/kg i.p., 24 h; vs vehicle, p<0.02; FIG. 1A
Protocol: as §1

[1] = target: T1, rat and/or human FAAH enzyme (UniProt P97612); experiment: FAAH inhibition assay; assay type: biochemical; conditions: rat or human FAAH inhibition assay as in Rahn et al. (2011)
T1 sequence (P97612 1-579): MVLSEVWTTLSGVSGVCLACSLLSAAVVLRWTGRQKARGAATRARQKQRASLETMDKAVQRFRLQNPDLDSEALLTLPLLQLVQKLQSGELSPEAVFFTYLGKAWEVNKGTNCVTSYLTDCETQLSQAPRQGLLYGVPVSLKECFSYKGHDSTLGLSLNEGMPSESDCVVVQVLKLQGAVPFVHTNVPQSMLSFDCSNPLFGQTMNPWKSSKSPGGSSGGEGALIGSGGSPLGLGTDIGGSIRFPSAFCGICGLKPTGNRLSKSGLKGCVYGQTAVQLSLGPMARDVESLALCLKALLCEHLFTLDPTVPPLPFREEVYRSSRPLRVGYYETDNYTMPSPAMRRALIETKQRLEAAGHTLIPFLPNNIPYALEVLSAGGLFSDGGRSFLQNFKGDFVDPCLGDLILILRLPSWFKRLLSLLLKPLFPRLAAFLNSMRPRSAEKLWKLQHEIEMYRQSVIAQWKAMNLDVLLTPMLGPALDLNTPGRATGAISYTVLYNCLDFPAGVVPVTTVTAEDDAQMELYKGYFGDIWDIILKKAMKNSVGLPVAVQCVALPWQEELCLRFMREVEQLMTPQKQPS
From the text: Biochem and Behavior 98: 493. […] Particular FAAH inhibitor compounds for use with the invention include those disclosed in the following references: Deng, H (2010) Expert Opin. Drug Discovery 5(10): 961-993 and Blankman (2013) Pharmacol Rev 65:849-871, Seierstad (2008) J. Med. Chem., 51 (23), pp 7327-7343, Ahn (2009) Expert Opin. Drug Discov. 4(7):763-784 and references cited therein.

`O=C(CCCOc1ccc(OCc2ccccc2)cc1)C(F)(F)F` [Compound 1, 5-(4-(benzyloxy)phenoxy)-1,1,1-trifluoropentan-2-one] was tested, and the “BDNF levels in hippocampus (ELISA)” value (BDNF) was “protects against excitotoxin-induced reduction in BDNF”, the “GDNF levels in hippocampus (ELISA)” value (GDNF) was “enhances GDNF levels” and the IC50 [1] was 42 nM.
